Data from patent US20060148714A1, “Therapeutic peptide-based constructs” (priority 1999, published 2006).
Converted amounts (≈) assume the structure as drawn. Marks after values point to notes of the source that are not given here. Where a SMILES comes first, the peptide text is derived from it. Where no end group is shown, it is not given here. [ ]: non-standard residue; d: D form. The star is where a group is joined. Benzoyl(4-Ph) = O=C(c1ccc(-c2ccccc2)cc1)*; Benzoyl(2-Ph) = O=C(c1ccccc1-c1ccccc1)*; d1Nal = N[C@H](Cc1cccc2ccccc12)C(=O)O; Aib = CC(C)(N)C(=O)O

Experiments:
[1] = test system: Factor Xa neutralization by ATIII/heparin complexes; test: Chromostrate heparin anti-Factor Xa assay (heparin neutralization); format: biochemical; details: absorbance at 405 nm
Procedure: A Chromostrate™ assay was used to determine the effect of peptide-based constructs, including derivatized constructs, and the effect protamine sulfate (as a positive control) on Factor Xa neutralization by ATIII/heparin complexes. The assay was conducted using a Chromostrate™ heparin anti-Factor Xa assay kit (Organon Teknika Corp., Durham, N.C.). Heparin concentration was varied so that a heparin standard curve was generated. The assay measured the potentiating effect of heparin on anti-Xa activity in vitro. Solution containing heparin is incubated in the presence of ATIII with an excess of Factor Xa, forming an ATIII-Heparin-Xa complex. The remaining Xa catalyzes the release of p-nitroaniline (pNA) from the chromogenic substrate. The release of p-nitroaniline is measured at 405 nm. The absorbance obtained in inversely porportional to the concentration of heparin in the sample.
Reagents for the assay are prepared as follows. Heparin, peptide-based constructs and protamine sulfate stocks are made in saline. Stock solutions are approximately 1 mg/mL=1 μg/μL. Factor Xa reagent and substrate reagent are reconstituted with 2.0 mL purified water. Antithrombin III (ATIII) reagent is reconstituted with 1.0 mL purified water. The assay is performed in 96 well microtiter plates. Assay components are added to the microtiter wells as follows: 12.5 μl of heparin (from 0 to 10 U/mL), 25 μl of construct or protamine sulfate, 12.5 μL of ATIII (0.5 PEU/mL), 25 μL of bovine Factor Xa (14 nKat/mL), 25 μL substrate (3 μmoles/mL). The reaction is allowed to proceed for 20 minutes and then 25 μL of 0.1 M acetic acid is added. The color reaction is quantitated on a microplate reader at 405 nm. Constructs that neutralize heparin show an increase in the absorbance at 405 nm. Protamine is used as a positive control and its activity is designated as 100%. The percent (%) heparin neutralization for each peptide construct is calculated relative to the neutralization by protamine (100%), and shown in Table IV.

[2] = test system: E. coli (J5 and 0111 B4), Staphylococcus aureus and Candida albicans; test: Broth and/or radial diffusion antimicrobial assays; format: cell-based
Excerpt: Assays useful for testing a variety of biological activities of BPI protein products, including BPI-derived peptides, are described in co-owned U.S. Pat. Nos. 5,733,872; 5,763,567; 5,652,332; and 5,856,438 and corresponding PCT Publication Nos. WO 94/20532 (PCT/US94/02465) and WO 95/19372 (PCT/US94/10427) and U.S. Pat. No. 5,858,974 and corresponding PCT Publications Nos. WO 96/08509 (PCT/US95/09262) and WO 97/04008 (PCT/US96/03845), incorporated herein by reference. These activities include antimicrobial (including antibacterial and antifungal), LPS binding, LPS neutralization and additional assays of heparin binding as well as heparin neutralization.

[3] = test system: LPS; test: RAW cell assay of LPS neutralization; format: cell-based
[4] = test system: human umbilical vein endothelial cells (HUVEC); format: cell-based; details: 72 h
Procedure: Briefly, human umbilical vein endothelial cells (HUVEC) were cultured in EGM-2 medium (Clonetics Corp., San Diego, Calif.), harvested and plated onto a 96-well culture plate. After 24 hours of quiescence, the cells were co-cultured with various peptide-based constricts in the presence of growth factors for 72 hours to test their activity. Cell proliferation was quantitated by tritiated thymidine incorporation into DNA and was expressed in counts per minute (cpm).
Details of the experimental procedures were as follows: HUVEC cells were cultured in EGM-2 media from Clonetics Corp., a subsidiary of BioWhittaker, Inc., San Diego, Calif. [EGM-2 is Endothelial Cell Basal Medium-2 (EMB-2) supplemented with growth factors (hFGF-B, VEGF, IGF-1, hEGF) ascorbic acid, heparin, GA-1000 and 2% FBS), in T75 flasks until confluent (˜4-7 days). Cells were harvested by trypsinizing the cells using 0.025% trypsin/EDTA for 5 minutes. To stop the reaction, 2-5% FBS was added. The cells were centrifuged and washed 3 times using Hank's Balanced Salt Solution (HBSS) or Dulbecco's Phosphate Buffered Saline D-PBS. The pellet was then resuspended in EBM-2 supplemented with 0.1% FBS and GA-1000 was used. The cells were counted and a cell suspension was prepared at 2×10^5/mL in EBM-2 with 0.1% FBS; cells were dispensed into a 96-well flat bottomed culture plate at 0.1 mL/well (total: ˜20,000 cells/well in 0.1% FBS-EBM-2). Incubation continued at 37° C. in 5% CO2 for 20-24 hours. The next day peptide-based constructs were prepared for testing in a 96 well plate. The supernatant was aspirated from the cell-well, replaced with EBM-2 or the testing reagent at 20 μL/well. Then, 180 μL/well of 1.12% FBS-GFS were added to make a final concentration of 1% FBS-GFS in EBM-2. This aspiration and addition was done well-by-well. ^3H-thymidine (100 μCi/mL) was added at 10 μL/well (1 μCi/well, final). Incubation continued at 37° C., 5% CO2 for 72 hours. To harvest the plate, the supernatant was aspirated off from the cell-well and then 75 μL-100 μL/well of 0.025% trypsin-EDTA was added. After incubation for 8-10 minutes at room temperature in the hood, the cells were checked and 100 μL/well of 2-5% FBS-PBS was added to stop the reaction. The plate was then harvested, dried and counted using an Inotech cell harvester (Inotech Biosystems, INB-384, Sample Processing and Filter Counting System, Lansing, Mich.).

Compound	Assay A: percent heparin neutralization relative to protamine (100%) [1]	Assay B: percent heparin neutralization relative to protamine (100%) [1] [%]	antimicrobial activity [2]	LPS neutralization activity [3]	IC50 [4] [µg/mL]
k-l-f-r-(biphenyl-A)-q-a-k [XMP.685]	3.4%	0.2			
k-l-f-r-(biphenyl-a)-q-a-k [XMP.725]	3.8%	1.0			
1-naphthylacetyl-k-l-f-r-(naph-a)-q-a-k ({1‑naphthylacetyl}-[dK][dL][dF][dR][dNal][dQ][dA][dK]; not fully specified; printed as 1-naphthylacetyl-k-l-f-r-(naph-a)-q-a-k) [XMP.671]	32%	15			
k-l-f-k-(naph-a)-q-a-k-(naph-a) ([dK][dL][dF][dK][dNal][dQ][dA][dK][dNal]; not fully specified; printed as k-l-f-k-(naph-a)-q-a-k-(naph-a)) [XMP.776]	74%	75	highest antimicrobial activities		
4-biphenylcarbonyl-k-l-f-r-(biphenyl-a)-q-a-k [XMP.768]	34%	10			
4-biphenylcarbonyl-k-l-f-k-(naph-a)-q-a-k ({Benzoyl(4-Ph)}-[dK][dL][dF][dK][dNal][dQ][dA][dK]; not fully specified; printed as 4-biphenylcarbonyl-k-l-f-k-(naph-a)-q-a-k) [XMP.767]	63%*	58	highest activities		
4-biphenylcarbonyl-k-l-f-r-(naph-a)-q-a-k ({Benzoyl(4-Ph)}-[dK][dL][dF][dR][dNal][dQ][dA][dK]; not fully specified; printed as 4-biphenylcarbonyl-k-l-f-r-(naph-a)-q-a-k) [XMP.664]	50%	16	highest activities		
CC(C)C[C@@H](NC(=O)[C@@H](CCCCN)NC(=O)c1ccccc1-c1ccccc1)C(=O)N[C@H](Cc1ccccc1)C(=O)N[C@H](CCCNC(=N)N)C(=O)N[C@H](Cc1cccc2ccccc12)C(=O)N[C@H](CCC(N)=O)C(=O)N[C@H](C)C(=O)N[C@H](CCCCN)C(N)=O [XMP.661, 2-biphenylcarbonyl-k-l-f-r-(naph-a)-q-a-k] ({Benzoyl(2-Ph)}-[dK][dL][dF][dR][d1Nal][dQ][dA][dK]-NH2)	30%	9			
CC(C)C[C@@H](NC(=O)[C@H](N)CCCCN)C(=O)N[C@H](Cc1ccccc1)C(=O)N[C@H](CCCNC(=N)N)C(=O)N[C@H](Cc1cccc2ccccc12)C(=O)N[C@H](CCC(N)=O)C(=O)N[C@H](C)C(=O)N[C@H](CCCCN)C(=O)N[C@H](Cc1cccc2ccccc12)C(=O)N[C@H](CCCCN)C(=O)NCC(=O)N[C@H](CO)C(N)=O [XMP.626, k-l-f-r-(naph-a)-q-a-k-(naph-a)-k-g-s] (H-[dK][dL][dF][dR][d1Nal][dQ][dA][dK][d1Nal][dK]G[dS]-NH2)	99%	80		showed activity	
k-l-f-k-(biphenyl-a)-q-a-k-(biphenyl-a)-k-G [XMP.728]	106%	87			
CC[C@@H](C)[C@@H](NC(=O)[C@@H](CCCCN)NC(=O)[C@H](NC(=O)CNC(=O)[C@@H](CCCCN)NC(=O)[C@@H](Cc1cccc2ccccc12)NC(=O)[C@@H](CCCCN)NC(=O)[C@@H](C)NC(=O)[C@@H](CCC(N)=O)NC(=O)[C@@H](Cc1cccc2ccccc12)NC(=O)[C@@H](CCCNC(=N)N)NC(=O)[C@@H](Cc1ccccc1)NC(=O)[C@@H](CC(C)C)NC(=O)[C@H](N)CCCCN)[C@H](C)CC)C(N)=O [XMP.656, k-l-f-r-(naph-a)-q-a-k-(naph-a)-k-g-i-k-i] (H-[dK][dL][dF][dR][d1Nal][dQ][dA][dK][d1Nal][dK]G[dI][dK][dI]-NH2; N-terminus assumed)	74%	65	highest antimicrobial activities		2.6 ± 0.8 (≈ 1.43 µM)
k-a-f-k-(naph-a)-q-a-k-(naph-a)-k-G ([dK][dA][dF][dK][dNal][dQ][dA][dK][dNal][dK]G; not fully specified; printed as k-a-f-k-(naph-a)-q-a-k-(naph-a)-k-G) [XMP.764]	75%	60	highest antimicrobial activities		
k-a-f-r-(naph-a)-q-a-k-(naph-a) ([dK][dA][dF][dR][dNal][dQ][dA][dK][dNal]; not fully specified; printed as k-a-f-r-(naph-a)-q-a-k-(naph-a)) [XMP.760]	53%	44	highest antimicrobial activities		
k-(aminoisobutyric acid)-f-r-(naph-a)-q-a-k-(naph-a) ([dK][Aib][dF][dR]A[dQ][dA][dK]A; not fully specified (residues 5, 9)) [XMP.778]	54%	49	highest antimicrobial activities		
4-biphenylcarbonyl-k-l-f-k-(biphenyl-a)-q-a-k [XMP.769]	64%	46			
